Read-outs that look alike come from different tables or passages of the source. Blank lines part the entries; values can stand above or below the compound they belong to.
Columns and labels:
[1] = test system: NCI-H2122; assay: Inhibition of cell proliferation (NCI-H2122); type: cell-based; conditions: Homo sapiens, Table 2B, Lung, average, read-out: IC50 Aver, NCI-H2122
[2] = test system: Caco2 cells; assay: Permeability in Caco2 cells; type: in vitro ADME; conditions: Caco2
From the text: (§1) The determination of the permeability in Caco2 cells is widely used in screening compounds to assess intestinal drug transport and predict absorption rates.

[3] = Permeability in Caco2 cells; type: in vitro ADME; conditions: human, Caco-2, Caco2 cells
From the text: as §1

[4] = test system: Calu-6; assay: Inhibition of cancer cell proliferation, Alamar Blue assay (Calu-6); type: cell-based; conditions: Homo sapiens
Method: (§2) The ability of the compounds described herein to kill or inhibit the proliferation of cancer cells was measured using the Alamar Blue assay using a 72 hours exposure. Results for different cancer cell lines are shown in, the Table 2 below (hematopoietic cell lines U937 and K562; MDA-MB-231 a breast cancer cell line; and NCI-H82 and Calu-6, two lung cancer cell lines): […]

[5] = test system: K562; assay: Inhibition of cancer cell proliferation, Alamar Blue assay (K562); type: cell-based; conditions: Homo sapiens
Method: as §2

[6] = test system: Jurkat; assay: Inhibition of cell proliferation (Jurkat); type: cell-based; conditions: Homo sapiens, Table 2B, Leukemia, average, read-out: IC50 Aver, Jurkat
[7] = test system: A431; assay: Inhibition of cell proliferation (A431); type: cell-based; conditions: Homo sapiens, A-431; Table 2B; epidermi; average; read-out: IC50 Aver, A431
[8] = Pharmacokinetics in Balbc mice; type: in vivo; conditions: Balbc male mice
Method: The pharmacokinetic parameters for several compounds listed above were determined in mice following IV (intravenous) or IP (intraperitoneal) administration. Briefly, six Balbc male mice 7 to 8 weeks old were used for each study. A dose of 5 mg/kg or 10 mg/kg was administered using a 5% DMSO/90% Captisol (20% in water) solution for ACT-CK-050 or FFF for ACT-CK-154. Blood samples were collected at different intervals. Plasma samples were extracted and analyzed using an LC-MS/MS method. Results are represented in FIGS. 1 and 2.

[9] = Microsomal stability in human liver microsomes; type: in vitro ADME
From the text: Microsomal stability in vitro in different biologic media and species is ascertained when screening compounds to evaluate the rate at which a compound undergoes metabolism.

[10] = test system: Hep G2; assay: Inhibition of cell proliferation (Hep G2); type: cell-based; conditions: Homo sapiens, HepG2; Table 2B; Liver; average; read-out: IC50 Aver, Hep G2
[11] = test system: HCT-116; assay: Inhibition of cell proliferation (HCT-116); type: cell-based; conditions: Homo sapiens, Table 2B, Colon, average, read-out: IC50 Aver, HCT-116
[12] = test system: Colo-205; assay: Inhibition of cell proliferation (Colo-205); type: cell-based; conditions: Homo sapiens, Table 2B, Colorectal, average, read-out: IC50 Aver, Colo-205
[13] = test system: HT-29; assay: Inhibition of cell proliferation (HT-29); type: cell-based; conditions: Homo sapiens, Table 2B, Colon, average, read-out: IC50 Aver, HT-29
[14] = target: T1, Choline Kinase α (CKα) (Homo sapiens, UniProt P35790); assay: Inhibition of Choline Kinase α, kinase activity assay; type: biochemical; conditions: recombinant CKα expressed in E. coli
T1 construct: GST; made in house; host or cells: E. coli BL21(DE3)
Method: CKα was prepared by expression in E. coli (Bl21(DE3)) and purified by GST column and column chromatography. […] The recombinant protein was pure and active as determined by the results of a kinase activity assay.

[15] = test system: NCI-H82; assay: Inhibition of cancer cell proliferation, Alamar Blue assay (NCI-H82); type: cell-based; conditions: Homo sapiens
Method: as §2

[16] = test system: H209; assay: Inhibition of cell proliferation (H209); type: cell-based; conditions: Homo sapiens, NCI-H209; Table 2B; Lung; average; read-out: IC50 Aver, H209
[17] = test system: MDA-MB-231; assay: Inhibition of cancer cell proliferation, Alamar Blue assay (MDA-MB-231); type: cell-based; conditions: Homo sapiens
Method: as §2

[18] = test system: Hela; assay: Inhibition of cell proliferation (Hela); type: cell-based; conditions: Homo sapiens, Table 2B, Cervical, average, read-out: IC50 Aver, Hela
[19] = test system: DU145; assay: Inhibition of cell proliferation (DU145); type: cell-based; conditions: Homo sapiens, DU-145; Table 2B; Prostate; average; read-out: IC50 Aver, DU145
[20] = test system: PC3; assay: Inhibition of cell proliferation (PC3); type: cell-based; conditions: Homo sapiens, PC-3; Table 2B; Prostate; average; read-out: IC50 Aver, PC3
[21] = test system: MKN-45; assay: Inhibition of cell proliferation (MKN-45); type: cell-based; conditions: Homo sapiens, Table 2B, Gastric, average, read-out: IC50 Aver, MKN-45
[22] = test system: U937; assay: Inhibition of cancer cell proliferation, Alamar Blue assay (U937); type: cell-based; conditions: Homo sapiens, U-937
Method: as §2

[23] = comparison of A-B and B-A values
[24] = Table 2A, Alamar Blue, 72 hours exposure, read-out: IC50s Calu-6
[25] = Table 2A, Alamar Blue, 72 hours exposure, read-out: IC50s K562
[26] = IV or IP, 5 mg/kg or 10 mg/kg, 5% DMSO/90% Captisol solution
[27] = Table 2A, Alamar Blue, 72 hours exposure, read-out: IC50s NCI-H82
[28] = Table 2A, Alamar Blue, 72 hours exposure, read-out: IC50s MDA-MB231
[29] = Table 2A, Alamar Blue, 72 hours exposure, read-out: IC50s U937

T1 sequence (P35790 whole entry): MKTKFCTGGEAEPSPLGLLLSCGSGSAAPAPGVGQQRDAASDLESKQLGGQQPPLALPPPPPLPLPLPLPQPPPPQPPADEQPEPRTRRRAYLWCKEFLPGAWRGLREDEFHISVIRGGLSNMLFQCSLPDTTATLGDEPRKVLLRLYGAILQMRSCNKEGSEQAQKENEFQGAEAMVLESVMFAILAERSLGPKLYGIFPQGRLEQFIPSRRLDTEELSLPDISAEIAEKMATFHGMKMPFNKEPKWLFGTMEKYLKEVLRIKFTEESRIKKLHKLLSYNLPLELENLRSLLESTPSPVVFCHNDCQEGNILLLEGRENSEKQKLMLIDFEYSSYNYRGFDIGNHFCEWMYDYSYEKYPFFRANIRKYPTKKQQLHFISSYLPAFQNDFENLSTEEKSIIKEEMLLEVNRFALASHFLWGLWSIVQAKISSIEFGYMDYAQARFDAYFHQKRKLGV

Compound: CCOc1ccc(-c2nnc(SCC(=O)Nc3cc(C)cc(C)c3)[nH]2)cc1 [ACT-CK-050, N-(3,5-Dimethyl-phenyl)-2-[5-(4-ethoxy-phenyl)-4H-[1,2,4]triazol-3-ylsulfanyl]-acetamide]
IC50 [1]: 0.173 µM | Pgp substrate (in words) [2, 23]: not a Pgp substrate | active efflux (in words) [2, 23]: not actively effluxed out the cells | permeability properties (in words) ([2]; high permeability determined as Papp>10×10^−6 cm/s): high permeability | Papp A→B ([3]; apical to basal): 461 nm/s | Papp B→A ([3]; basal to apical): 162 nm/s | IC50 [4, 24]: 0.06 µM | IC50 ([4]; Table 2B, Lung, average, read-out: IC50 Aver, Calu-6): 0.057 µM | IC50 [5, 25]: 0.04 µM | IC50 ([5]; Table 2B, Leukemia, average, read-out: IC50 Aver, K562): 0.043 µM | IC50 [6]: 10.4 µM | IC50 [7]: 0.117 µM | Clearance (in words) [8, 26]: cleared too quickly | Plasma levels (in words) [8, 26]: too low | % Metabolized (mean) [9]: 99% | IC50 [10]: 0.163 µM | IC50 [11]: 0.523 µM | IC50 [12]: 0.24 µM | IC50 [13]: 89.7 µM | IC50 [14]: 20 µM | IC50 [15, 27]: 0.09 µM | IC50 ([15]; Table 2B, Lung, average, read-out: IC50 Aver, NCI-H82): 0.096 µM | IC50 [16]: 0.367 µM | IC50 [17, 28]: 18.5 µM | IC50 ([17]; Table 2B, Breast, average, read-out: IC50 Aver, MDA-MB-231): 18.5 µM | IC50 [18]: 0.022 µM | IC50 [19]: 0.597 µM | IC50 [20]: 0.24 µM | IC50 [21]: 0.047 µM | IC50 [22, 29]: 0.06 µM | IC50 ([22]; Table 2B, lymphoma, average, read-out: IC50 Aver, U937): 0.063 µM

Compound: CCOc1ccc(-c2nnc(SCC(=O)Nc3cc(OC)cc(OC)c3)[nH]2)cc1 [ACT-CK-109, N-(3,5-Dimethoxy-phenyl)-2-[5-(4-ethoxy-phenyl)-4H-[1,2,4]triazol-3-ylsulfanyl]-acetamide]
IC50 [14]: 18 µM

Compound: CCOc1ccc(-c2nnc(SCC(=O)Nc3nc(C)cc(C)n3)[nH]2)cc1 [ACT-CK-148, N-(4,6-Dimethyl-pyrimidin-2-yl)-2-[5-(4-ethoxy-phenyl)-4H-[1,2,4]triazol-3-ylsulfanyl]-acetamide]
IC50 [4, 24]: 0.47 µM | IC50 [5, 25]: 0.72 µM | % Metabolized (mean) [9]: 54% | IC50 [15, 27]: 8.1 µM | IC50 [17, 28]: 29 µM | IC50 [22, 29]: 0.5 µM

Compound: CCOc1ccc(-c2nnc(SCC(=O)N(C)c3cc(C)cc(C)c3)[nH]2)cc1 [ACT-CK-153, N-(3,5-Dimethyl-phenyl)-2-[5-(4-ethoxy-phenyl)-4H-[1,2,4]triazol-3-ylsulfanyl]-N-methyl-acetamide]
% Metabolized (mean) [9]: 99% | IC50 [14]: 30 µM

Further lines, results first:

IC50 [4, 24]: 0.03 µM | IC50 [5, 25]: 0.8 µM | Cmax ([8]; IV, 5 mg/kg): 3.639 µg/mL | T1/2b ([8]; IV, 5 mg/kg): 9 min | Vd ([8]; IV, 5 mg/kg): 1.66 L/kg | % Metabolized (mean) [9]: 99% | IC50 [15, 27]: 0.16 µM | IC50 [17, 28]: 2.6 µM | IC50 [22, 29]: 0.02 µM
Compound: CCOc1ccc(-c2nnc(SCC(=O)Nc3cc(C)cc(C)c3)[nH]2)cc1F [ACT-CK-154, N-(3,5-Dimethyl-phenyl)-2-[5-(4-ethoxy-3-fluoro-phenyl)-4H-[1,2,4]triazol-3-ylsulfanyl]acetamide]

IC50 [4, 24]: 1.7 µM | IC50 [5, 25]: 3.27 µM | IC50 [15, 27]: 1.7 µM | IC50 [17, 28]: 7 µM | IC50 [22, 29]: 1.1 µM
Compound: CCOc1ccc(-c2nnc(SCC(=O)Nc3cccc(C)c3)[nH]2)cc1 [ACT-CK-156, 2-[5-(4-Ethoxy-phenyl)-4H-[1,2,4]triazol-3-ylsulfanyl]-N-m-tolyl-acetamide]

IC50 [14]: 50 µM
Compound: CCOc1ccc(-c2nnc(SCC(=O)Nc3cccc(OC)c3)[nH]2)cc1 [ACT-CK-157, 2-[5-(4-Ethoxy-phenyl)-4H-[1,2,4]triazol-3-ylsulfanyl]-N-(3-methoxy-phenyl)-acetamide]

IC50 [14]: > 100 µM
Compound: CCOc1ccc(-c2nnc(SCC(=O)NC3CC(C)(C)NC(C)(C)C3)[nH]2)cc1 [ACT-CK-170, 2-[5-(4-Ethoxy-phenyl)-4H-[1,2,4]triazol-3-ylsulfanyl]-N-(2,2,6,6-tetramethyl-piperidin-4-yl)-acetamide]
